Where two headings read alike, the source gives them in different places.
Key:
[1] = tested on: Ba/F3 EGFR L858R; assay: Ba/F3 cell proliferation (MTS) assay; assay type: cell-based, murine; details: Mus musculus
Method: (§1) Murine Ba/F3 cells are engineered to express mutant EGFR protein along with untransformed Ba/F3 cells and are used to performed single drug screens. Cell viability is assessed after 72 hours of compound i.e., compounds of Formula (I), exposure using the colorimetric cell proliferation MTS assay kit (Promega).
(§2) All experimental points were set up in six wells and all experiments were repeated at least three times. […] The curves were fitted using a non-linear regression model with a sigmoidal dose response.

[2] = tested on: Ba/F3 EGFR DEL/T790M/L718Q; assay: Ba/F3 cell proliferation (MTS) assay; assay type: cell-based, murine; details: Mus musculus
Method: as §1
(§3) All cell lines were maintained in RPMI 1640 (Invitrogen, Carlsbad, CA) supplemented with 10% FBS 100 units/mL penicillin, 100 units/mL streptomycin, and 2 mM glutamine.
(§4) Ba/F3, NIH-3T3, cells were infected with retrovirus and PC9GR4 and HCC827 EPR cells infected with lentivirus according to standard protocols, as described previously (Engelman, J. A., et al., Proc Natl Acad Sci USA. 2005; 102:3788-93). Stable clones were obtained by selection in puromycin (2 μg/ml).
(§5) Growth and inhibition of growth was assessed by MTS assay and was performed according to previously established methods (Zhou, W., et al., Nature. 462, 2009, 1070-4; Ercan, D., et al., Cancer Discov. 934, 2012, 934-47). […] All experimental points were set up in six wells and all experiments were repeated at least three times. […] The curves were fitted using a non-linear regression model with a sigmoidal dose response.

[3] = tested on: Ba/F3 EGFR DEL/T790M; assay: Ba/F3 cell proliferation (MTS) assay; assay type: cell-based, murine; details: Mus musculus
Method: as §1, §2

[4] = tested on: Ba/F3 EGFR L858R/T790M/L718Q; assay: Ba/F3 cell proliferation (MTS) assay; assay type: cell-based, murine; details: Mus musculus
Method: as §1, §3, §4, §5

[5] = tested on: Ba/F3 EGFR L858R/L718Q; assay: Ba/F3 cell proliferation (MTS) assay; assay type: cell-based, murine; details: Mus musculus
Method: as §1, §3, §4, §5

[6] = tested on: Ba/F3 EGFR L718Q; assay: cells; details: Mus musculus, 72 h
Method: as §1, §3
The EGFR L718Q and L844V mutations were introduced via site directed mutagenesis using the Quick Change Site-Directed Mutagenesis kit (Stratagene; La Jolla, CA) according to the manufacturer's instructions. The L718Q mutation was generated using forward primer 5′-[sequence]-3′ (SEQ. ID. NO. 1) and reverse primer 5′ [sequence]-3′ (SEQ. ID. NO. 2). The L844V mutation was generated using forward primer 5′-[sequence]-3′ (SEQ. ID. NO. 3) and reverse primer 5′-[sequence]-3′ (SEQ. ID. NO. 4). All constructs were confirmed by DNA sequencing. The constructs were shuttled into the retroviral vector JP1540 or lentiviral vector JP1698 using the BD Creator™ System (BD Biosciences). […]
Growth and inhibition of growth was assessed by MTS assay and was performed according to previously established methods (Zhou, W., et al., Nature. 462, 2009, 1070-4; Ercan, D., et al., Cancer Discov. 934, 2012, 934-47). […]

[7] = tested on: Ba/F3 EGFR L858R/T790M; assay: Ba/F3 cell proliferation (MTS) assay; assay type: cell-based, murine; details: Mus musculus
Method: as §1, §2

[8] = tested on: Ba/F3 EGFR DEL/844V; assay: Ba/F3 cell proliferation (MTS) assay; assay type: cell-based, murine; details: Mus musculus
Method: as §1, §3, §4, §5

[9] = tested on: Ba/F3 EGFR WT; assay: Ba/F3 cell proliferation (MTS) assay; assay type: cell-based, murine; details: Mus musculus
Method: as §1, §2

[10] = tested on: Ba/F3 EGFR DEL; assay: Ba/F3 cell proliferation (MTS) assay; assay type: cell-based, murine; details: Mus musculus
Method: as §1, §2

[11] = tested on: Ba/F3 EGFR DEL/L718Q; assay: Ba/F3 cell proliferation (MTS) assay; assay type: cell-based, murine; details: Mus musculus
Method: as §1, §3, §4, §5

[12] = Ba/F3, EGFR L858R, 72 hours, MTS, read-out: IC50
[13] = Ba/F3, EGFR DEL/T790M/L718Q, 72 hours, MTS, read-out: IC50
[14] = Ba/F3, EGFR DEL/T790M, 72 hours, MTS, read-out: IC50
[15] = Ba/F3, EGFR L858R/T790M/L718Q, 72 hours, MTS, read-out: IC50
[16] = Ba/F3, EGFR L858R/L718Q, 72 hours, MTS, read-out: IC50
[17] = Ba/F3, EGFR L858R/T790M, 72 hours, MTS, read-out: IC50
[18] = Ba/F3, EGFR DEL/844V, 72 hours, MTS, read-out: IC50
[19] = Ba/F3, EGFR WT, 72 hours, MTS, read-out: IC50
[20] = Ba/F3, EGFR DEL, 72 hours, MTS, read-out: IC50
[21] = Ba/F3, EGFR DEL/L718Q, 72 hours, MTS, read-out: IC50

Row | IC50 [1, 12] [nM] | IC50 [2, 13] [nM] | IC50 [3, 14] [nM] | IC50 [4, 15] [nM] | IC50 [5, 16] [nM] | IC50 [7, 17] [nM] | IC50 [8, 18] [nM] | IC50 [9, 19] [nM] | IC50 [10, 20] [nM] | IC50 [11, 21] [nM] | SMILES | IC50 [6] [nM] | also measured
1 | 6.8 | 2010 | 19.2 | 2230 | 2740 | 14.2 | 956 | 100 | 8.4 | 1490 | C=CC(=O)Nc1cccc(Oc2nc(Nc3ccc(N4CCN(C)CC4)cc3OC)ncc2Cl)c1 [WZ4002] | 2890 | 
2 | 60 | 644 | 64.8 | 1970 | 2060 | 189 | 53.1 | 323 | 42.9 | 176 | C=CC(=O)Nc1cc(Nc2nccc(-n3ccc4cccnc43)n2)c(OC)cc1N(C)CCN(C)C [Compound I-1, N-(5-((4-(1H-pyrrolo[2,3-b]pyridin-1-yl)pyrimidin-2-yl)amino)-2-((2-(dimethylamino)ethyl)(methyl)amino)-4-methoxyphenyl)acrylamide] |  | 
3 |  |  |  |  |  |  |  |  |  |  | C=CC(=O)Nc1cc(Nc2nccc(-c3cn(C)c4ccccc34)n2)c(OC)cc1N(C)CCN(C)C [AZD9291] | 1250 | IC50 ([1]; Ba/F3 EGFR-L858R, 72 h): 1.98 nM; IC50 ([2]; Ba/F3 EGFR, 72 h): 576 nM; IC50 ([3]; Ba/F3 EGFR, 72 h): 10 nM; IC50 ([4]; Ba/F3 EGFR, 72 h): 1270 nM; IC50 ([5]; Ba/F3 EGFR, 72 h): 1180 nM; IC50 ([7]; Ba/F3 EGFR, 72 h): 10 nM; IC50 ([8]; Ba/F3 EGFR, 72 h): 15.1 nM; IC50 ([9]; Ba/F3 EGFR, 72 h): 23 nM; IC50 ([10]; Ba/F3 EGFR, 72 h): 1.79 nM; IC50 ([11]; Ba/F3 EGFR, 72 h): 55.4 nM

Reference: patent US12331037B2, “Pyrimidines as EGFR-inhibitors and methods of treating disorders” (Dana-Farber Cancer Institute, Inc., priority 2014, dated 2025)
